≈ marks a conversion by molar mass, not a printed value.
Assays:
[1] = tested on: Trichophyton benhamiae; assay: Antifungal activity towards Trichophyton mentagrophytes 530324 strain; type: functional, Arthroderma benhamiae
[2] = tested on: Candida albicans; assay: Antifungal activity against Candida albicans C-A-24 strain; type: functional
[3] = tested on: Aspergillus fumigatus; assay: Antifungal activity against Aspergillus fumigatus Saito strain; type: functional
[4] = tested on: Cryptococcus neoformans; assay: Antifungal activity against Cryptococcus neoformans Cr-1 strain; type: functional
[5] = tested on: Trichophyton interdigitale; assay: Antifungal activity towards Trichophyton interdigitale; type: functional

Compound	MIC [1] [µg/mL]	MIC [2] [µg/mL]	MIC [3] [µg/mL]	MIC [4] [µg/mL]	MIC [5] [µg/mL]
IC#CCn1nnc(-c2ccccc2)n1	0.2 (≈ 0.645 µM)	0.78 (≈ 2.52 µM)	0.2 (≈ 0.645 µM)	1.56 (≈ 5.03 µM)	0.39 (≈ 1.26 µM)
O=C(O)c1ccc(-c2nnn(CC#CI)n2)cc1	25 (≈ 70.6 µM)	> 100	> 100	100 (≈ 282 µM)	6.25 (≈ 17.7 µM)
Fc1ccc(-c2nnn(CC(I)=C(I)I)n2)cc1	0.1 (≈ 0.172 µM)	> 100	> 100	> 100	0.78 (≈ 1.34 µM)
Clc1ccccc1C(c1ccccc1)(c1ccccc1)n1ccnc1 [CLOTRIMAZOLE]	0.39 (≈ 1.13 µM)	6.25 (≈ 18.1 µM)	1.56 (≈ 4.52 µM)	1.56 (≈ 4.52 µM)	0.39 (≈ 1.13 µM)
Clc1cc(Cl)c(OCC#CI)cc1Cl [HALOPROGIN]	0.39 (≈ 1.08 µM)	3.13 (≈ 8.66 µM)	3.13 (≈ 8.66 µM)	1.56 (≈ 4.32 µM)	0.39 (≈ 1.08 µM)

Reference: ChEMBL document CHEMBL1123701, “Synthesis and quantitative structure-activity relationship analysis of N-triiodoallyl- and N-iodopropargylazoles. New antifungal agents” (1987)
